The compounds below were run against human M4 receptor (Homo sapiens (Human), UniProt P08173) (assay: Binding assay: inhibition of radioligand (tritiated N-methylscopolamine) binding to membranes from CHO cells expressing human M4 receptor). Settings: CHO cell membranes, 1.5 nM tritiated N-methylscopolamine.
Method: Binding affinity (Ki) for the compounds was measured by inhibition of radioligand binding to membranes from CHO cells expressing human M4 receptor. Membranes were prepared by nitrogen cavitation and differential centrifugation as previously described (Hoare et al., Mol. Pharmacol. 2003 March; 63(3): 751-65). The radioligand employed was tritiated N-methylscopolamine, used at a concentration of 1.5 nM. A dose-response of twelve concentrations of compound was used, ranging from […]. The assay buffer was 50 mM HEPES, 100 mM NaCl, 5 mM MgCl2, 1 mM ethylenediaminetetraacetic acid, pH-adjusted to pH 7.4. Membranes, radioligand and compound were incubated together for 90 minutes at 37° C., in a total volume of 150 μL in a 96-well plate. Receptor-bound radioligand was then collected by harvesting the assay over glass fiber filters pretreated with polyethylenimine to trap the cell membranes, using rapid vacuum filtration. Harvesting and radioactivity counting was conducted as previously described (see, e.g., Hoare et al., Mol. Pharmacol. 2003 63(3):751-65); Erratum at Mol. Pharmacol. 2005 July; 68(1): 260).

human M4 receptor, sequence (P08173 whole entry): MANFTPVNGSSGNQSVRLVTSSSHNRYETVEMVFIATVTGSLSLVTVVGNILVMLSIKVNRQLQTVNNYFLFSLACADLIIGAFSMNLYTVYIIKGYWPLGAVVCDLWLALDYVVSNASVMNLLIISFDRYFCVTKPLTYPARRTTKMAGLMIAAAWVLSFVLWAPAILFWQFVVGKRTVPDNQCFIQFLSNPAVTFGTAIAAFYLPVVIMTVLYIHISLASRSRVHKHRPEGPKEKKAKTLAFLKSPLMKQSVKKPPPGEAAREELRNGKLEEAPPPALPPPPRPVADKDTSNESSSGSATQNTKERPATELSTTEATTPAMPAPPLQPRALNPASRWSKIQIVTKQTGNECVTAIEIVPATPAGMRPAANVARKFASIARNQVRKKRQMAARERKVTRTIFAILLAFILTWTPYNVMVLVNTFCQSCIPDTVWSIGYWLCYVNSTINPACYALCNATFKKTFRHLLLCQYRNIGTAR

| Structure (SMILES) | Ki [µM] |
| --- | --- |
| C[C@@H]1CN(c2ncc(S(=O)(=O)C3CC3)cn2)[C@@H](C)CN1C(=O)OC1CC2(C1)CN(Cc1ccccc1)C2 [Compound 20, 2-benzyl-2-azaspiro [3.3]heptan-6-yl (2R,5S)-4-[5-(cyclo-propanesulfonyl)pyrimidin-2-yl]-2,5-dimethyl-piperazine-1-carboxylate] | < 0.1 |
| CC[C@@H](O)COc1cnc(N2C[C@@H](C)N(C(=O)OC3CC4(C3)CN(Cc3ccccc3)C4)[C@@H](C)C2)nc1 [Compound 58, 2-benzyl-2-azaspiro [3.3]heptan-6-yl (2R,6S)-4-{5-[(2R)-2-hydroxybutoxy]pyrimidin-2-yl}-2,6-dimethyl-piperazine-1-carboxylate] | 0.1 to 0.5 |
| C[C@@H]1CN(c2ncc(S(C)(=O)=O)cn2)[C@@H](C)CN1C(=O)OC1CC2(C1)CN(Cc1ccc(Cl)cc1)C2 [Compound 37, 2-[(4-chlorophenyl)methyl]-2-azaspiro[3.3] heptan-6-yl (2R,5S)-4-(5-methanesulfonylpyrimidin-2-yl)-2,5-dimethyl-piperazine-1-carboxylate] | < 0.1 |
| C[C@@H]1CN(c2ncc(OC3CC3)cn2)C[C@H](C)N1C(=O)OC1CC2(C1)CN(Cc1ccccc1)C2 [Compound 46, 2-benzyl-2-azaspiro [3.3]heptan-6-yl (2R,6S)-4-(5-cyclopropoxy-pyrimidin-2-yl)-2,6-dimethylpiperazine-1-carboxylate] | ≥ 0.5 |
| C[C@@H]1CN(c2ncc(S(C)(=O)=O)cn2)C[C@H](C)N1C(=O)OC1CC2(C1)CN(Cc1ccc(Cl)cc1)C2 [Compound 36, 2-[(4-chlorophenyl)methyl]-2-azaspiro[3.3] heptan-6-yl (2R,6S)-4-(5-methanesulfonylpyrimidin-2-yl)-2,6-dimethyl-piperazine-1-carboxylate] | < 0.1 |
| C[C@@H]1CN(c2ncc3c(n2)CS(=O)(=O)C3)C[C@H](C)N1C(=O)OC1CC2(C1)CN(Cc1ccccc1)C2 [Compound 43, 2-benzyl-2-azaspiro [3.3]heptan-6-yl (2R,6S)-4-dioxo-5H,7H-6λ^6-thieno [3,4-d]pyrimidin-2-yl}-2,6-dimethylpiperazine-1-carboxylate] | < 0.1 |
| CCS(=O)(=O)c1cnc(N2C[C@@H](C)N(C(=O)OC3CC4(C3)CN(Cc3ccccc3)C4)[C@@H](C)C2)nc1 [Compound 32, 2-benzyl-2-azaspiro [3.3]heptan-6-yl (2R,6S)-4-[5-(ethane-sulfonyl)pyrimidin-2-yl]-2,6-dimethylpiperazine-1-carboxylate] | < 0.1 |
| C[C@@H]1CN(c2ccc(S(C)(=O)=O)cc2)C[C@H](C)N1C(=O)NC1CC2(C1)CN(Cc1ccccc1)C2 [Compound 9, (2R,6S)-N-{2-benzyl-2-azaspiro[3.3]heptan-6-yl}-4-(4-methanesulfonyl-phenyl)-2,6-dimethyl-piperazine-1-carboxamide] | ≥ 0.5 |
| Cc1ccc(CN2CC3(CC(OC(=O)N4[C@H](C)CN(c5ncc(S(C)(=O)=O)cn5)C[C@@H]4C)C3)C2)cc1 [Compound 61, 2-[(4-methylphenyl)methyl]-2-azaspiro[3.3] heptan-6-yl (2R,6S)-4-(5-methanesulfonylpyrimidin-2-yl)-2,6-dimethyl-piperazine-1-carboxylate] | ≥ 0.5 |
| C[C@@H]1CN(c2ncc(OC[C@@H](C)O)cn2)C[C@H](C)N1C(=O)OC1CC2(C1)CN(Cc1ccccc1)C2 [Compound 56, 2-benzyl-2-azaspiro [3.3]heptan-6-yl (2R,6S)-4-{5-[(2R)-2-hydroxypropoxy]pyrimidin-2-yl}-2,6-dimethyl-piperazine-1-carboxylate] | 0.1 to 0.5 |
| C[C@@H]1CN(c2ncc(S(=O)(=O)C3CC3)cn2)CCN1C(=O)OC1CC2(C1)CN(Cc1ccccc1)C2 [Compound 22, 2-benzyl-2-azaspiro [3.3]heptan-6-yl (2R)-4-[5-(cyclopropanesulfonyl)pyrimidin-2-yl]-2-methylpiperazine-1-carboxylate] | < 0.1 |
| CCS(=O)(=O)c1cnc(N2C[C@@H](C)N(C(=O)OC3CC4(C3)CN(Cc3ccccc3)C4)C[C@@H]2C)nc1 [Compound 11, 2-benzyl-2-azaspiro [3.3]heptan-6-yl (2R,5S)-4-[5-(ethane-sulfonyl)pyrimidin-2-yl]-2,5-dimethylpiperazine-1-carboxylate] | < 0.1 |
| C[C@@H]1CN(c2ncc(N3CCC3=O)cn2)C[C@H](C)N1C(=O)OC1CC2(C1)CN(Cc1ccccc1)C2 [Compound 29, 2-benzyl-2-azaspiro [3.3]heptan-6-yl (2R,6S)-2,6-dimethyl-4-[5-(2-oxoazetidin-1-yl)pyrimidin-2-yl] piperazine-1-carboxylate] | ≥ 0.5 |
| C[C@@H]1CN(c2ncc([S+](C)[O-])cn2)C[C@H](C)N1C(=O)OC1CC2(C1)CN(Cc1ccccc1)C2 (stereo partly drawn) [Compound 23, 2-benzyl-2-azaspiro [3.3]heptan-6-yl (2R,6S)-4-(5-methane-sulfinylpyrimidin-2-yl)-2,6-dimethylpiperazine-1-carboxylate] | 0.1 to 0.5 |
| C[C@@H]1CN(c2ncc(OCC(O)C(F)F)cn2)C[C@H](C)N1C(=O)OC1CC2(C1)CN(Cc1ccccc1)C2 (stereo partly drawn) [Compound 54, 2-benzyl-2-azaspiro [3.3]heptan-6-yl (2R,6S)-4-[5-(3,3-difluoro-2-hydroxypropoxy)pyrimidin-2-yl]-2,6-dimethylpiperazine-1-carboxylate] | 0.1 to 0.5 |

— patent publication US20250092022A1, “MUSCARINIC RECEPTOR 4 ANTAGONISTS AND METHODS OF USE” (Neurocrine Biosciences, Inc., priority 2021, published 2025)
